US7510845B2, “Assay employing G protein-coupled receptor expressed in dorsal root ganglia” (California Institute of Technology, priority 2000, dated 2009)
Entries after “also recorded” stand apart in the source; their conditions may differ. Ends that are not written are not given here.

How the values were obtained:
MRGA1 [1] = biological target: T1, MRGA1 (Mus musculus, UniProt Q91WW5); test: Intracellular Ca2+ release assay (Fura-2), MRGA1-GFP in HEK-Gα15 cells; assay type: cell-based; details: for Calcium response of MRGA1-expressing cells to ligand: HEK-Gα15 cells, ligand 1 μM; for Activation of MrgA1 in dose-response experiments: HEK cells expressing Gα15
T1 construct: cDNAs encoding eight full-length variants of Mrg receptors (mMrgA1-8) are provided; expressed in transfected cells; host or cells: HEK293-Galpha15 (A1) or HEK293 lacking Galpha15 (A4), transient transfection with FuGENE 6
T1 sequence (Q91WW5 1-304): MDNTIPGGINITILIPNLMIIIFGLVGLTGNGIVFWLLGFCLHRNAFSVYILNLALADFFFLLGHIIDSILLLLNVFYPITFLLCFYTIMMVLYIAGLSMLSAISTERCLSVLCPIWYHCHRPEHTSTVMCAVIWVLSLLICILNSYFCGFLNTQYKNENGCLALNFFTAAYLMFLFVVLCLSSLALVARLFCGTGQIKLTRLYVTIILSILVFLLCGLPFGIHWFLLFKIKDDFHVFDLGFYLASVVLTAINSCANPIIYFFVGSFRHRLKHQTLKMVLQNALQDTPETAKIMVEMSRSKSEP
Procedure: (§1) To identify ligands for the Mrg receptors, selected MrgA genes were tested in a calcium release assay. MrgA genes, including MrgA1 and MrgA4, were cloned into a eukaryotic expression vector and transfected into human embryonic kidney (HEK) 293 cells. HEK-293 cells were obtained from the ATCC and cultured in DMEM supplemented with 10% fetal bovine serum. An HEK293-Gα15 cell line stably expressing Gα15 was provided by Aurora Biosciences Corporation and grown on Matrigel™ (growth factor reduced Matrigel, Becton Dickinson, diluted 1:200 with serum-free DMEM)-coated flasks and maintained at 37° C. in DMEM (GibcoBRL) supplemented with 10% heat-inactivated fetal bovine serum, 2 mM L-glutamine, 0.1 mM non-essential amino acids, 1 mM sodium pyruvate, 25 mM HEPES and 3 μg/ml blastcidin-S. For transfection, cells were seeded on Matrigel-coated 35 mm glass-bottom dishes (Bioptech Inc., Butler, Pa.). After 16-24 hr, cells were transfected using FuGENE 6 (Roche).
(§2) To increase the sensitivity of the calcium release assay, in some experiments the MRGA-GFP fusion proteins were expressed in HEK 293 cells modified to express Gα15, which couples GPCRs to a signal transduction pathway leading to the release of intracellular free Ca^2+ (Offermann and Simon J Biol Chem 270: 15175-80 (1995)). This calcium release can be monitored ratiometrically using Fura-2 as a fluorescent indicator dye (Tsien et al. Cell Calcium 6: 145-57 (1985)) (FIGS. 11A-C). This heterologous expression system has been previously used to identify ligands for taste receptors (Chandrashekar et al. Cell 100: 703-11 (2000)).
(§3) Briefly, transfected cells were washed once in Hank's balanced salt solution with 11 mM D-glucose and 10 mM HEPES, pH 7.4 (assay buffer) and loaded with 2 μM Fura-2 AM (Molecular Probes) at room temperature for 90 min, with rotation. Loaded cells were washed twice with assay buffer and placed on a micro-perfusion chamber (Bioptech). The chamber was mounted on top of a Olympus IMT2 inverted microscope, and imaged with an Olympus DPlanApo 40× oil immersion objective lens. Samples were illuminated by a 75 W xenon bulb, and a computer-controlled filter changer (Lambda-10; Shutter Instruments) was used to switch the excitation wavelength. A cooled CCD camera (Photometric) was used in detecting fluorescence. GFP-positive cells within a field were identified using an excitation wavelength of 400 nm, a dichroic 505 nm long-pass filter and an emitter bandpass of 535 nm (Chroma Technology). In the same field, calcium measurements were performed at an excitation wavelength of 340 nm and 380 nm, and an emission wavelength of 510 nm. Agonists were diluted in assay buffer and solution changes accomplished by micro-perfusion pump (Bioptech). Fura-2 fluorescence signals (340 nm, 380 nm and the 340/380 ratio) originating from GFP-positive cells were continuously monitored at 0.4- or 1-second intervals and collected using Axon Imaging Workbench 4.0 software (Axon). Instrument calibration was carried out with standard calcium solutions (Molecular probes) in glass bottom dishes (MatTek Corp.).

MRGA1 [2] = biological target: T1, MRGA1; test: Intracellular Ca2+ release assay, MRGA1 in HEK cells lacking Gα15; assay type: cell-based; details: ligand 1 μM
Procedure: as §1, with “(Roche). Transfection efficiencies were estimated by visualization of GFP fused to the C-terminus of MrgA1 and A4, and were typically >60%. Fusing GFP to the C-termini of the MrgA coding sequences additionally allowed for visual confirmation of the intracellular distribution of the receptors and their membrane integration in the transfected cells (FIG. 11D).” for “(Roche).”
as §3, with “Corp.). […]” for “Corp.).”

[3] = system: chronic pain models, including neuropathic pain; details: intrathecal injection; several chronic pain models; cited from earlier work
MRGA4 [4] = biological target: T2, MRGA4 (Mus musculus, UniProt Q91WW2, A204G); test: Intracellular Ca2+ release assay, MRGA4 in HEK cells lacking Gα15; assay type: cell-based; details: ligand 1 μM
T2 construct: cDNAs encoding eight full-length variants of Mrg receptors (mMrgA1-8) are provided; expressed in transfected cells; host or cells: HEK293-Galpha15 (A2) or HEK293 lacking Galpha15 (A5), transient transfection with FuGENE 6
T2 sequence (Q91WW2 9-313 A204G limits assumed): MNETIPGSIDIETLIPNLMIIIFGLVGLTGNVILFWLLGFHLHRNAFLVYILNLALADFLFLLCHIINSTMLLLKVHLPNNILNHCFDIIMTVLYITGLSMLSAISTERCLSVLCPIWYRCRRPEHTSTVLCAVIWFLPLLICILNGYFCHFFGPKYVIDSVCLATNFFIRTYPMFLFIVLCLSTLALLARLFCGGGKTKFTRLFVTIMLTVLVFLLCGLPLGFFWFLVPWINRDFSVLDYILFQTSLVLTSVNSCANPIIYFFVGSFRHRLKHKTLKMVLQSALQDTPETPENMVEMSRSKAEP
Procedure: as §1, with “(Roche). Transfection efficiencies were estimated by visualization of GFP fused to the C-terminus of MrgA1 and A4, and were typically >60%. Fusing GFP to the C-termini of the MrgA coding sequences additionally allowed for visual confirmation of the intracellular distribution of the receptors and their membrane integration in the transfected cells (FIG. 11D).” for “(Roche).”
as §3, with “Corp.). […]” for “Corp.).”

MAS1 = test: Intracellular Ca2+ release assay (Fura-2), MAS1 in HEK-Gα15 cells; assay type: cell-based; details: for Activation of MAS1: HEK-Gα15 cells
MRGA4 [5] = biological target: T2, MRGA4; test: Intracellular Ca2+ release assay (Fura-2), MRGA4-GFP in HEK-Gα15 cells; assay type: cell-based; details: HEK cells expressing Gα15
Procedure: To identify ligands for the Mrg receptors, selected MrgA genes were tested in a calcium release assay. MrgA genes, including MrgA1 and MrgA4, were cloned into a eukaryotic expression vector and transfected into human embryonic kidney (HEK) 293 cells. HEK-293 cells were obtained from the ATCC and cultured in DMEM supplemented with 10% fetal bovine serum. […]
as §2, with “This heterologous expression system has been previously used to identify ligands for taste receptors (Chandrashekar et al. Cell 100: 703-11 (2000)).” left out
Briefly, transfected cells were washed once in Hank's balanced salt solution with 11 mM D-glucose and 10 mM HEPES, pH 7.4 (assay buffer) and loaded with 2 μM Fura-2 AM (Molecular Probes) at room temperature for 90 min, with rotation. […] A cooled CCD camera (Photometric) was used in detecting fluorescence. […] Fura-2 fluorescence signals (340 nm, 380 nm and the 340/380 ratio) originating from GFP-positive cells were continuously monitored at 0.4- or 1-second intervals and collected using Axon Imaging Workbench 4.0 software (Axon). […]

CCCCC/C=C\C/C=C\C/C=C\C/C=C\CCCC(=O)O [Arachidonic Acid]
Calcium response of MRGA1-expressing cells to ligand (MRGA1 [1]): only very weakly activated

CCCCC[C@H](O)/C=C/[C@H]1[C@H](O)CC(=O)[C@@H]1CCCCCCC(=O)O [Prostaglandin-E1]
Calcium response of MRGA1-expressing cells to ligand (MRGA1 [1]): only very weakly activated

AGEGLNSQFWSLAAPQRF-NH2 [NPAF]
Calcium response of MRGA1-expressing cells to ligand (MRGA1 [2]): no response
Antinociceptive effect [3]: long-lasting antinociceptive effects
Calcium response of MRGA4-expressing cells to ligand (MRGA4 [4]): respond
EC50 (MAS1; HEK cells, RF-amide ligands, read-out: Relative efficacy of activation of MAS1): > 1000 nM
Activation of MAS1 (MAS1): did not respond well
Activation of MrgA1 in dose-response experiments (MRGA1 [1]): much less effective
Calcium response of MRGA1-expressing cells to ligand (MRGA1 [1]): significantly lower

Angiotensin I: peptide hormone previously reported to activate MAS1 (DRVYIHPFHL; Angiotensin-1; UniProt P01019 25-34, looked up)
Activation of MAS1 (MAS1): No response was detected

Angiotensin II: peptide hormone previously reported to activate MAS1 (DRVYIHPF; Angiotensin-2; UniProt P01019 25-32, looked up)
Activation of MAS1 (MAS1): No response was detected

CGRP-II: neuropeptide, calcitonin gene-related peptide
Calcium response of MRGA1-expressing cells to ligand (MRGA1 [2]): considerably diminished
Calcium response of MRGA4-expressing cells to ligand (MRGA4 [4]): considerably diminished
Calcium response of MRGA1-expressing cells to ligand (MRGA1 [1]): some level of activation; also recorded: strongest responses

NPY: neuropeptide
Calcium response of MRGA1-expressing cells to ligand (MRGA1 [2]): lost completely
Calcium response of MRGA4-expressing cells to ligand (MRGA4 [4]): lost completely
Calcium response of MRGA1-expressing cells to ligand (MRGA1 [1]): some level of activation; also recorded: strongest responses

Phe-Met-Arg-Phe-amide [FMRFamide]
Calcium response of MRGA1-expressing cells to ligand (MRGA1 [1]): most efficient responses
Calcium response of MRGA1-expressing cells to ligand (MRGA1 [1]; listed as FMRF): strongest responses

RFRP-1: RFamide ligand produced from a different precursor (MPHSFANLPLRF; ends and bridges not checked; UniProt Q9HCQ7 81-92, looked up)
Activation of MrgA4 in dose-response experiments (MRGA4 [5]): Neither receptor showed strong activation
Activation of MrgA1 in dose-response experiments (MRGA1 [1]): Neither receptor showed strong activation

RFRP-2: RFamide ligand produced from a different precursor (SAGATANLPLRS; ends and bridges not checked; UniProt Q9HCQ7 101-112, looked up)
Activation of MrgA4 in dose-response experiments (MRGA4 [5]): Neither receptor showed strong activation
Activation of MrgA1 in dose-response experiments (MRGA1 [1]): Neither receptor showed strong activation

SYSMEHFRWGKPVGKKRRPVKVYPNGAEDESAEAFPLEF [ACTH]
Calcium response of MRGA1-expressing cells to ligand (MRGA1 [2]): considerably diminished
Calcium response of MRGA4-expressing cells to ligand (MRGA4 [4]): considerably diminished
Activation of MAS1 (MAS1): Nor did MAS1 respond
Calcium response of MRGA1-expressing cells to ligand (MRGA1 [1]): some level of activation; also recorded: strongest responses

neurokinin A: peptide hormone
Calcium response of MRGA1-expressing cells to ligand (MRGA1 [1]): did not activate

neurokinin B: peptide hormone
Calcium response of MRGA1-expressing cells to ligand (MRGA1 [1]): did not activate

schistoFLRF: RFamide ligand, SEQ ID NO: 115 (PDVDHVFLRF; ends and bridges not checked)
Calcium response of MRGA1-expressing cells to ligand (MRGA1 [1]): weakly activated
